Data published in patent US20130281544A1, “HEPATOPROTECTANT ACTIVITY OF GARCINOL” (priority 2010, published 2013).

Test system: carbon tetrachloride induced liver damage in rats
Experiment: Bilirubin and serum enzymes ALT, AST, ALP in carbon tetrachloride induced liver damage
Format: in vivo, Male Wistar Rats
Conditions: CCl4; for ALP percent change / ALT percent change / AST percent change / Bilirubin percent change / ALP / ALT / AST / Bilirubin: serum; for ALP / ALT / AST / Bilirubin: Mean ± SE
Description: Doses of Garcinol (GC) used for the study: 1.25, 2.5, 5, 10 mg/kg p.o.
Standard drug: Silymarin (50 mg/kg) p.o.
Liver injury was induced by administration of carbon tetrachloride (CCl4) mixed with liquid paraffin (5 fold dilution). Animals were given single dose of CCl4 at 1 ml/kg, p.o. followed by the administration of garcinol (Table 2). [(i) Bramanti G, Murmann W, Pierini P and Comporti M (1978). Effect of cicloxilic acid on CCl4-induced liver injury. Drug Research 28: 1112-1217. (ii) B Singh, A K Saxena, B K Chandan, K K Anand (1998). Hepatoprotective activity of Verbenalin on experimental liver damage in rodents. Fitoterapia LXIX 2: 135-140. (iii) B. K. Chandan, A. K. Sharma, K. K. Anand Boerhaavia difiusa: A study of its hepatoprotective activity. Journal of Ethnopharmacology, Volume 31, Issue 3, March 1991, Pages 299-307].
Blood was collected from the retro-orbital plexus of experimental animals and no anti-coagulant was added. Blood was made to stand at room temperature for 1 hour. It was then centrifuged and clear serum was separated. The serum was then stored for analysis. Reference: (Magari et al., 2004).
(ASPARTATE AMINOTRANSFERASE and ALANINE AMINOTRANSFERASE), Reference: Ritman S, Frankel S, (1957). A colorimeteric method for the determination of serum glutamic oxaloacetic and glutamic pyruvic transaminases. American Journal of Clinical Pathology; 28: 56-63.
0.2 ml of serum, collected from test and control samples, was mixed with 1.0 ml of buffer solution and incubated for 60 min at 37° C. in a water bath. After the addition of 1.0 ml of chromogen solution, the samples were kept at room temperature for 20 minutes for the reaction to proceed and 10 ml NaOH was added. The optical density was red at 546 nm after 5 min. To the blank, serum was added after the addition of chromogen solution.
(ALKALINE PHOSPHATASE), Reference: Klaus Walter and Schutt C. (1974). Acid and alkaline phosphatase in serum. In: Methods of Enzymatic Analysis. Eds. Hans Ulrich Bergmeyer, Verlag ChemieWeinheim, Academic press, Inc. New York, 2nd Edition, Vol. 2, pp. 855-64.
Alkaline phosphatase activity measurement is based on the ability of the enzyme to hydrolyze p-nitrophenol phosphate under alkaline conditions. The cleaved product p-nitrophenol is yellow in alkaline solution and is measured at 400-420 nm (Klaus and Schutt, 1974). 2.0 ml of buffered substrate was taken in the tubes ‘Test’ ‘Control’ and ‘Blank’ followed by addition of serum and distilled water (0.1 ml) in ‘Test’ and ‘Blank’ respectively and incubated in a water bath for 30 minutes at 25° C. After incubation sodium hydroxide was added (0.25 N, 2 ml) to all the tubes, which was followed by serum (0.1 ml) to the tubes marked ‘Control’. The yellow colour formed was measured spectrophotometrically against blank at 410 nm.
[BILIRUBIN (BRBN)], Reference: Malloy H T and Evelyn K A (1937). The determination of bilirubin with photoelectric colorimeter. Journal of Biological Chemistry 119: 481-490.
Serum bilirubin was estimated by the method of Malloy and Evelyn (1937). In the two sets of test tubes marked ‘Test’ and ‘Control’, serum (0.2 ml) and distilled water (1.8 ml) were added. To the tubes marked ‘Test’ and ‘Standard’ diazo reagent (0.5 ml) was added. To the test tubes marked ‘Control’ and ‘Blank’ diazo blank (0.5 ml) was added. Finally methanol (2.5 ml) was added into each test tube. The tubes were mixed and allowed to stand for 30 minutes in dark. The tubes were read after 10 minutes at 540 nm.

Structure (SMILES): C=C(C)[C@@H](CC=C(C)C)C[C@@]12C[C@@H](CC=C(C)C)C(C)(C)[C@@](CC=C(C)C)(C(=O)C(C(=O)c3ccc(O)c(O)c3)=C1O)C2=O [Garcinol]
- Average Protection (1.25 mg/kg p.o.): 12.63%
- Average Protection (2.50 mg/kg p.o.): 24.99%
- Average Protection (5.00 mg/kg p.o.): 38.07%
- Average Protection (10.00 mg/kg p.o.): 36.87%
- ALP percent change (1.25 mg/kg p.o.): (10.79) %
- ALT percent change (1.25 mg/kg p.o.): (12.84) %
- AST percent change (1.25 mg/kg p.o.): (14.95) %
- Bilirubin percent change (1.25 mg/kg p.o.): (11.96) %
- ALP (1.25 mg/kg p.o.): 78.49 ± 6.58 μmol/min/lt
- ALT (1.25 mg/kg p.o.): 1272.50 ± 109.19 μmol/min/lt
- AST (1.25 mg/kg p.o.): 746.81 ± 36.93 μmol/min/lt
- Bilirubin (1.25 mg/kg p.o.): 1.03 ± 0.04 mg %
- ALP percent change (2.50 mg/kg p.o.): (20.08) %
- ALT percent change (2.50 mg/kg p.o.): (29.65) %
- AST percent change (2.50 mg/kg p.o.): (26.32) %
- Bilirubin percent change (2.50 mg/kg p.o.): (23.93) %
- ALP (2.50 mg/kg p.o.): 70.32 ± 3.89 μmol/min/lt
- ALT (2.50 mg/kg p.o.): 1027.07 ± 68.26 μmol/min/lt
- AST (2.50 mg/kg p.o.): 646.90 ± 50.53 μmol/min/lt
- Bilirubin (2.50 mg/kg p.o.): 0.89 ± 0.05 mg %
- ALP percent change (5.00 mg/kg p.o.): (32.73) %
- ALT percent change (5.00 mg/kg p.o.): (43.24) %
- AST percent change (5.00 mg/kg p.o.): (42.98) %
- Bilirubin percent change (5.00 mg/kg p.o.): (33.33) %
- ALP (5.00 mg/kg p.o.): 59.19 ± 4.45 μmol/min/lt
- ALT (5.00 mg/kg p.o.): 828.59 ± 46.56 μmol/min/lt
- AST (5.00 mg/kg p.o.): 500.66 ± 49.22 μmol/min/lt
- Bilirubin (5.00 mg/kg p.o.): 0.78 ± 0.04 mg %
- ALP percent change (10.00 mg/kg p.o.): (32.15) %
- ALT percent change (10.00 mg/kg p.o.): (38.94) %
- AST percent change (10.00 mg/kg p.o.): (40.50) %
- Bilirubin percent change (10.00 mg/kg p.o.): (35.89) %
- ALP (10.00 mg/kg p.o.): 59.70 ± 3.69 μmol/min/lt
- ALT (10.00 mg/kg p.o.): 891.36 ± 45.72 μmol/min/lt
- AST (10.00 mg/kg p.o.): 522.43 ± 57.50 μmol/min/lt
- Bilirubin (10.00 mg/kg p.o.): 0.75 ± 0.04 mg %
